ChEMBL document CHEMBL1938230, “6-Position optimization of tricyclic 4-quinolone-based inhibitors of glycogen synthase kinase-3β: discovery of nitrile derivatives with picomolar potency” (Bioorg Med Chem Lett, 2012)
Converted amounts (≈) assume the structure as drawn.

How the values were obtained:
[1] = target: Mitogen-activated protein kinase kinase kinase 1 (Homo sapiens) (UniProt Q13233); assay: Inhibition of human MAP3K1 in HL-60 cells lysate assessed as reduction of labeling of acyl-phosphate ATP probe at 100 nM; format: cell-free
[2] = target: T1, Mitogen-activated protein kinase kinase kinase 3 (Homo sapiens) (UniProt Q99759); assay: Inhibition of human MAP3K3 in HL-60 cells lysate assessed as reduction of labeling of acyl-phosphate ATP probe at 100 nM; format: cell-free
T1 sequence (whole entry): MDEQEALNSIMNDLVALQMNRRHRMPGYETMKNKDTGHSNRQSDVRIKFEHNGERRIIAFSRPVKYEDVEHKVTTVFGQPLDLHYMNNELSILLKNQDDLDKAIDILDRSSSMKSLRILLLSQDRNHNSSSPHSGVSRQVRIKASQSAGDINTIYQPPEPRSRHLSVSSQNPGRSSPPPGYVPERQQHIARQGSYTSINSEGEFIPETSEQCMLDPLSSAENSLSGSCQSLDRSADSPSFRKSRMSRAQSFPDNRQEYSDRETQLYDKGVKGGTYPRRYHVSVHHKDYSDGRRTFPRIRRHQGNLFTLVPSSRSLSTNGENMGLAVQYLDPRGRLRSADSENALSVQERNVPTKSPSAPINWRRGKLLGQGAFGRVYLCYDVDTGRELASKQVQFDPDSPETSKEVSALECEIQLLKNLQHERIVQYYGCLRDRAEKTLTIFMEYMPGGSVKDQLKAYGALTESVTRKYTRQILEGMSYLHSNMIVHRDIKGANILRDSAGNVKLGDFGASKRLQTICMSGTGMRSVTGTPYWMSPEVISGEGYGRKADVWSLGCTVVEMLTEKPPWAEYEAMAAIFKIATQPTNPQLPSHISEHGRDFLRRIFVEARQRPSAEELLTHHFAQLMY

[3] = target: RAF proto-oncogene serine/threonine-protein kinase (Homo sapiens) (UniProt P04049); assay: Inhibition of human RAF1 in HL-60 cells lysate assessed as reduction of labeling of acyl-phosphate ATP probe at 100 nM; format: cell-free
[4] = target: Cyclin-dependent kinase 17 (Homo sapiens) (UniProt Q00537); assay: Inhibition of human PCTAIRE2 in HL-60 cells lysate assessed as reduction of labeling of acyl-phosphate ATP probe at 100 nM; format: cell-free
[5] = target: Interferon-induced, double-stranded RNA-activated protein kinase (Homo sapiens) (UniProt P19525); assay: Inhibition of human PKR in HL-60 cells lysate assessed as reduction of labeling of acyl-phosphate ATP probe at 100 nM; format: cell-free
[6] = target: T2, Mitogen-activated protein kinase kinase kinase 2 (Homo sapiens) (UniProt Q9Y2U5); assay: Inhibition of human MAP3K2 in HL-60 cells lysate assessed as reduction of labeling of acyl-phosphate ATP probe at 100 nM; format: cell-free
T2 sequence (whole entry): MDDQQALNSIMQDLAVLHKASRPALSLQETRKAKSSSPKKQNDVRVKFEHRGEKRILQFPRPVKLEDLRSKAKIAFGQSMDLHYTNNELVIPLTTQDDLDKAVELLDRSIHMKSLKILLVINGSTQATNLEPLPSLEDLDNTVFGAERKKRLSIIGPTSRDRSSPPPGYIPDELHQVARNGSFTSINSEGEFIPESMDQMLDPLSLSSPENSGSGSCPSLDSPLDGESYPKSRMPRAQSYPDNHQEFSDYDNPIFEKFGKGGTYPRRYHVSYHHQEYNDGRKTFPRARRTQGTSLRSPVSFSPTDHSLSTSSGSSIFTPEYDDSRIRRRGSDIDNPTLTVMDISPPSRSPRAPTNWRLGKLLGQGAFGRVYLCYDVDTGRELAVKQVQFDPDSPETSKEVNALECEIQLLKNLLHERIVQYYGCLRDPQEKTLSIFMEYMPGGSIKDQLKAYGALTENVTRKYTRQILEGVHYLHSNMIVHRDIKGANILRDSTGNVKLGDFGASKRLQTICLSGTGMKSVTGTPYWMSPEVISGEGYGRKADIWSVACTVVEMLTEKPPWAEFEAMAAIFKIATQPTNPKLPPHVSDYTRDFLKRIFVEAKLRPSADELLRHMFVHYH

[7] = target: Phosphatidylinositol 4,5-bisphosphate 3-kinase catalytic subunit beta isoform (Homo sapiens) (UniProt P42338); assay: Inhibition of human PIK3CB in HL-60 cells lysate assessed as reduction of labeling of acyl-phosphate ATP probe at 100 nM; format: cell-free
[8] = target: Phosphatidylinositol 4-kinase beta (Homo sapiens) (UniProt Q9UBF8); assay: Inhibition of human PI4KB in HL-60 cells lysate assessed as reduction of labeling of acyl-phosphate ATP probe at 100 nM; format: cell-free
[9] = test system: Staphylococcus aureus; assay: Antibacterial activity against Staphylococcus aureus Smith; format: ADME, organism-based
[10] = target: T3, Interleukin-1 receptor-associated kinase 4 (Homo sapiens) (UniProt Q9NWZ3); assay: Inhibition of human IRAK4 in HL-60 cells lysate assessed as reduction of labeling of acyl-phosphate ATP probe at 100 nM; format: cell-free
T3 sequence (whole entry): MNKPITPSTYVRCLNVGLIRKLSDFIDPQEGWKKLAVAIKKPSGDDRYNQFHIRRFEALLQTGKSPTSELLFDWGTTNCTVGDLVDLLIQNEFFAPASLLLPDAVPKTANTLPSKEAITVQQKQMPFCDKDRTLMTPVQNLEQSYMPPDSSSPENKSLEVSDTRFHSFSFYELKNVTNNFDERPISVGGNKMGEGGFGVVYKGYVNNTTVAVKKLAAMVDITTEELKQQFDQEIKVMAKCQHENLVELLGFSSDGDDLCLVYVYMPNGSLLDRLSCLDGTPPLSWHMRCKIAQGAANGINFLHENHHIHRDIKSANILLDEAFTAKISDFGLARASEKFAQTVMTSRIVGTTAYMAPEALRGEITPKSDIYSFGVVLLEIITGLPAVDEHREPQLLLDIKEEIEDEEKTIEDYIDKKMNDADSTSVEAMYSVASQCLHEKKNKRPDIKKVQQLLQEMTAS

[11] = target: Dual specificity tyrosine-phosphorylation-regulated kinase 1B (Homo sapiens) (UniProt Q9Y463); assay: Inhibition of human DYRK1B in HL-60 cells lysate assessed as reduction of labeling of acyl-phosphate ATP probe at 100 nM; format: cell-free
Sequence of Dual specificity tyrosine-phosphorylation-regulated kinase 1B (Homo sapiens) (Q9Y463 whole entry, looked up): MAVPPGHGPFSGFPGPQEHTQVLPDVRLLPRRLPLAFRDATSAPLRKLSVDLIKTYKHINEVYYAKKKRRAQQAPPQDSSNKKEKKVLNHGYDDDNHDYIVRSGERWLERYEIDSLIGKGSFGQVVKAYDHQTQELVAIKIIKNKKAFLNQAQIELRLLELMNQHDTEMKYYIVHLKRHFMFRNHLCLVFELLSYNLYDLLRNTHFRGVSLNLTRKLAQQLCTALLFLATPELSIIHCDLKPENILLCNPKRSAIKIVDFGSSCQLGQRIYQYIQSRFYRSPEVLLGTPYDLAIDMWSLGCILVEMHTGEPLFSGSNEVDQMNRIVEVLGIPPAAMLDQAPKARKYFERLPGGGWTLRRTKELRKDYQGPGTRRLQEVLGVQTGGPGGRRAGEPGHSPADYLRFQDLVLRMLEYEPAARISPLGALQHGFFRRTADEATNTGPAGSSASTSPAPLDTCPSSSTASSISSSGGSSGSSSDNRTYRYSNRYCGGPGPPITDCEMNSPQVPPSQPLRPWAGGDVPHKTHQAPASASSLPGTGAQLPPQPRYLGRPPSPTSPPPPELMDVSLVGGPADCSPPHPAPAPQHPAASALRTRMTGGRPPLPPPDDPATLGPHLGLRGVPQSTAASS

Sequence of Phosphatidylinositol 4,5-bisphosphate 3-kinase catalytic subunit beta isoform (Homo sapiens) (P42338 whole entry, looked up, canonical isoform): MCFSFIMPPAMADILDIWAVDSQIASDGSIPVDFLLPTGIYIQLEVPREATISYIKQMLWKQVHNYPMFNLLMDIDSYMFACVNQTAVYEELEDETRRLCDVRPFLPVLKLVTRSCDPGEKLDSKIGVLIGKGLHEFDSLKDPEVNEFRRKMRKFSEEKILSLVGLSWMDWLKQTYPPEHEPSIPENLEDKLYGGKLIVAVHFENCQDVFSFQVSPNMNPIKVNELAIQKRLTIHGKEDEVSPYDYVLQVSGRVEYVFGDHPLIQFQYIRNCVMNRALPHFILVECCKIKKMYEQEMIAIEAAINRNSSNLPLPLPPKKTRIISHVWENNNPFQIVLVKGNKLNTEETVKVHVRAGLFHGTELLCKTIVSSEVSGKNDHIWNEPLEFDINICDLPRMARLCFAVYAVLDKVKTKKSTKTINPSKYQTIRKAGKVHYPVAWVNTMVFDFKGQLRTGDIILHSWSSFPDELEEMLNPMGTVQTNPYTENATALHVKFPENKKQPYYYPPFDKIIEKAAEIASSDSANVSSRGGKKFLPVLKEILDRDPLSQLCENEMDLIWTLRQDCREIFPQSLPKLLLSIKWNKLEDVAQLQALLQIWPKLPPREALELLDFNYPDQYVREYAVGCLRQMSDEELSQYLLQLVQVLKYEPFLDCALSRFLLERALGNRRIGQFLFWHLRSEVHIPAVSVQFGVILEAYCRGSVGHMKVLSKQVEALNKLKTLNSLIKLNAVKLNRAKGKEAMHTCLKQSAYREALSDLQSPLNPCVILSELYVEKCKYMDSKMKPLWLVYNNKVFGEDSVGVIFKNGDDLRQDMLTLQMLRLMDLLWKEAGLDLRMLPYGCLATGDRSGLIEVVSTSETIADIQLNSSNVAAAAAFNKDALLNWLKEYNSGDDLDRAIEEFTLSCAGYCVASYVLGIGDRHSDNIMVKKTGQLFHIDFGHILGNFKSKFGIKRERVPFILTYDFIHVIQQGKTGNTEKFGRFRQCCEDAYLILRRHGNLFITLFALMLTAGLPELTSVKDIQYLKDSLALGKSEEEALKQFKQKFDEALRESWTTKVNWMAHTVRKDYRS
Sequence of Interferon-induced, double-stranded RNA-activated protein kinase (Homo sapiens) (P19525 whole entry): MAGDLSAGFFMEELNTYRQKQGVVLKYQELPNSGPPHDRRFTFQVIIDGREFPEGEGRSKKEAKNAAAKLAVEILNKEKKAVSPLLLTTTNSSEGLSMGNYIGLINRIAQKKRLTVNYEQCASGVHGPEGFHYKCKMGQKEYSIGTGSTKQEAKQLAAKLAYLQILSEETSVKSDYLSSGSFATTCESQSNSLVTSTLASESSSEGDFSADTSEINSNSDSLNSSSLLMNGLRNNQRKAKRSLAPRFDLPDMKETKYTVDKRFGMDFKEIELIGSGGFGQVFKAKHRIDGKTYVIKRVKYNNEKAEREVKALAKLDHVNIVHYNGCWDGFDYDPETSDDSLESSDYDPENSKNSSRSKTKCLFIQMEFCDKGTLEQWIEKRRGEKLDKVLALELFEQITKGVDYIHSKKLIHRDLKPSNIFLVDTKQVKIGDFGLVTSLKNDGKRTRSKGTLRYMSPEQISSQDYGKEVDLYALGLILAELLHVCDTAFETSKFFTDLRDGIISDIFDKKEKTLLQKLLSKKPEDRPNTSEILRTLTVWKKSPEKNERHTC
Sequence of RAF proto-oncogene serine/threonine-protein kinase (Homo sapiens) (P04049 whole entry): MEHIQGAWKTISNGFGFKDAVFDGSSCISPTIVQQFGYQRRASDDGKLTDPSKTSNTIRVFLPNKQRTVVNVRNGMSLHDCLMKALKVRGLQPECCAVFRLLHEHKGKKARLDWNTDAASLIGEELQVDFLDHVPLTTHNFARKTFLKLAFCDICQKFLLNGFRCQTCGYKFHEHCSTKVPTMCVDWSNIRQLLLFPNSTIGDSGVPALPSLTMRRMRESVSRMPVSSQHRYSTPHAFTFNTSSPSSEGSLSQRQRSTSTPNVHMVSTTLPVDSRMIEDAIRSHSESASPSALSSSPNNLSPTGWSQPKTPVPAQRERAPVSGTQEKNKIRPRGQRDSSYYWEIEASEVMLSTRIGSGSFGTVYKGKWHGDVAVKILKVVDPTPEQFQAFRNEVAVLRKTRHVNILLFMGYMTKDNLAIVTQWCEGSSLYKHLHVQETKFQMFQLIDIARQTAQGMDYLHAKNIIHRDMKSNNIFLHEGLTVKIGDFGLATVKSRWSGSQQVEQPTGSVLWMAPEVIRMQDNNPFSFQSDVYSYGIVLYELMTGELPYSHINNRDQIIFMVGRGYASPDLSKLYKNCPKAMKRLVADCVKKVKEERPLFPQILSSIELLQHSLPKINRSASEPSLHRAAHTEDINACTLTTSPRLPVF
Sequence of Mitogen-activated protein kinase kinase kinase 1 (Homo sapiens) (Q13233 whole entry): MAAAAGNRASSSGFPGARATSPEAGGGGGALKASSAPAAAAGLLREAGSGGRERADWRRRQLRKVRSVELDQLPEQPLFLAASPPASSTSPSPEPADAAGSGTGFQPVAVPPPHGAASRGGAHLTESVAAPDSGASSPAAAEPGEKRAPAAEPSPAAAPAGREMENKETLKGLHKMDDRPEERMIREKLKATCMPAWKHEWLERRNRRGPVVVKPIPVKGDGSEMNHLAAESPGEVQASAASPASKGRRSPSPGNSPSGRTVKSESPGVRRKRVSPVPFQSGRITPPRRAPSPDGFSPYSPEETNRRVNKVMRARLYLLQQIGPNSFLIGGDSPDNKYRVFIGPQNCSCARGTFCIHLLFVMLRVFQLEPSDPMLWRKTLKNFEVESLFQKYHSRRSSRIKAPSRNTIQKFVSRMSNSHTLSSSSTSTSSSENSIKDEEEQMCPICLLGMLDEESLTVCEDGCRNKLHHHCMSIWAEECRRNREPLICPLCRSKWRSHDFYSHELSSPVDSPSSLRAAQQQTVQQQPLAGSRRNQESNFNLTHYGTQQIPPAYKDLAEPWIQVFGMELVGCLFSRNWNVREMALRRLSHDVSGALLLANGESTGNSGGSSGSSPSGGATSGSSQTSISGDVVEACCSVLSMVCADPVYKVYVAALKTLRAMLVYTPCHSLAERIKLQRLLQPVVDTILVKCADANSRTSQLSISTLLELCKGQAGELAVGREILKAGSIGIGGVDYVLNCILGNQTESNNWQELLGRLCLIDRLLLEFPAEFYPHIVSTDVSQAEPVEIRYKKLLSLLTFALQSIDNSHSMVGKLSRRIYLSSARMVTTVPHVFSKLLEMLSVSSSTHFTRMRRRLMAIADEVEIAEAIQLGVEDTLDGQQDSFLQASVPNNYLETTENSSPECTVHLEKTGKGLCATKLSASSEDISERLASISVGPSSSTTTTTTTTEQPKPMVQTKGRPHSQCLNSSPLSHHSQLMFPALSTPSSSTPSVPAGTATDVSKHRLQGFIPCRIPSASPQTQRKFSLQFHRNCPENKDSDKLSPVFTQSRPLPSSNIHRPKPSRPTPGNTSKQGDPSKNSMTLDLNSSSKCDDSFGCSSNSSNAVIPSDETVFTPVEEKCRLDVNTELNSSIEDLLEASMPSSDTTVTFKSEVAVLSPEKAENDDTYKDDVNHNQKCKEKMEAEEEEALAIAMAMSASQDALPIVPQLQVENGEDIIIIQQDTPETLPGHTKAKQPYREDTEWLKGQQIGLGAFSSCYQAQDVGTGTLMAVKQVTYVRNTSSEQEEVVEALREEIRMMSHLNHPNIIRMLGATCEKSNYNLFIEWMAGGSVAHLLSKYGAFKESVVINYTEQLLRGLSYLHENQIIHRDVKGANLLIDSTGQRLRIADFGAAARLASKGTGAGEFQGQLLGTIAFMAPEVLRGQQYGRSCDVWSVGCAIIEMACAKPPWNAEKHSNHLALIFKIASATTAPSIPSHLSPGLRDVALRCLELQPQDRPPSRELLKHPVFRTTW
Sequence of Cyclin-dependent kinase 17 (Homo sapiens) (Q00537 whole entry, looked up): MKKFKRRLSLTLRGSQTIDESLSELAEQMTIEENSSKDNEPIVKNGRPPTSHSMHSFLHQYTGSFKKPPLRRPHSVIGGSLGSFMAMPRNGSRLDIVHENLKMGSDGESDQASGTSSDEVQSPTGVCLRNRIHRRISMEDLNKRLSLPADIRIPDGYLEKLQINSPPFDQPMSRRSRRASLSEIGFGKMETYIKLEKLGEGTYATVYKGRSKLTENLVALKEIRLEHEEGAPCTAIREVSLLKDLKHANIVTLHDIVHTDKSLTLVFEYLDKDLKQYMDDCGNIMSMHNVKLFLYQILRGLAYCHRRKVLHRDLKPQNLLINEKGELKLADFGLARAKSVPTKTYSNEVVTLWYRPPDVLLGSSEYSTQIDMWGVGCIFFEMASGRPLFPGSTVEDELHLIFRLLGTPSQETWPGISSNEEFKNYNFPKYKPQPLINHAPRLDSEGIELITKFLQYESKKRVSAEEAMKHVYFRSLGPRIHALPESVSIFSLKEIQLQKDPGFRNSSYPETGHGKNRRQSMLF

SMILES	inhibition [1]	inhibition [2]	inhibition [3]	inhibition [4]	inhibition [5]	inhibition [6]	inhibition [7]	inhibition [8]	MIC [9]	inhibition [10]	inhibition [11]
C[C@H]1COc2c(NCCCn3cccn3)c(F)c(N)c3c(=O)c(C#N)cn1c23	< 35%	< 35%	< 35%	< 35%	< 35%	< 35%	< 35%	< 35%	> 306 µM	< 35%	< 35%
C[C@H]1COc2c(NCCCc3ccccn3)c(F)c(N)c3c(=O)c(C#N)cn1c23	< 35%	< 35%	< 35%	< 35%	< 35%	< 35%	< 35%	< 35%	> 298 µM	< 35%	< 35%
C[C@H]1COc2c(NCCCn3cccn3)c(F)c(N)c3c(=O)c(C(=O)O)cn1c23	< 35%	< 35%	< 35%	< 35%	< 35%	< 35%	< 35%	< 35%	2 µM (≈ 0.803 µg/mL)	< 35%	< 35%
C[C@H]1COc2c(NCCCc3ccccn3)c(F)c(N)c3c(=O)c(C(=O)O)cn1c23	< 35%	< 35%	< 35%	< 35%	< 35%	< 35%	< 35%	< 35%	2 µM (≈ 0.825 µg/mL)	< 35%	< 35%
